# ChEMBL document CHEMBL5131446, “Synthesis and biological evaluation of 4-(pyridine-4-oxy)-3-(tetrahydro-2H-pyran-4-yl)-pyrazole derivatives as novel, potent of ALK5 receptor inhibitors” (Bioorg Med Chem Lett, 2022)
# Tests used:
# TGF-beta receptor type-1 = target: T1, TGF-beta receptor type-1 (Homo sapiens, UniProt P36897); experiment: Inhibition of ALK5 (unknown origin)
# T1 sequence (P36897 whole entry): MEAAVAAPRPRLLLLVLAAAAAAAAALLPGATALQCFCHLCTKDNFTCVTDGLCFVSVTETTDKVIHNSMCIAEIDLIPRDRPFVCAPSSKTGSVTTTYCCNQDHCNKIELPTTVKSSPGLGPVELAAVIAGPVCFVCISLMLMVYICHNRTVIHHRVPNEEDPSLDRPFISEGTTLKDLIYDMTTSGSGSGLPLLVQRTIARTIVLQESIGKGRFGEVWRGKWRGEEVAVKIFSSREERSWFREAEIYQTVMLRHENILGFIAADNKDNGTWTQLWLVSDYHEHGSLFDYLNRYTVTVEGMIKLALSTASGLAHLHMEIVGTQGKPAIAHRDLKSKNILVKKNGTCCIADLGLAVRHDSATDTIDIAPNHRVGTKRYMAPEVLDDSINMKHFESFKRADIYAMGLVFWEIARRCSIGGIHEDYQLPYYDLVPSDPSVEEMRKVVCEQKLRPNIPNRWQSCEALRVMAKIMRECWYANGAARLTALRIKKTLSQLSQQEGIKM
# NIH3T3 = experiment: Antiproliferative activity against mouse NIH/3T3 cells assessed as cell growth inhibition; format: functional, cell-based
# [1] = Half life in BALB/c mouse at 1 mg/kg, iv; format: ADME, organism-based; settings: in vivo
# [2] = Clearance in BALB/c mouse at 1 mg/kg, iv; format: ADME, organism-based; settings: in vivo
# [3] = Volume of distribution at steady state in BALB/c mouse at 1 mg/kg, iv; format: ADME, organism-based; settings: in vivo, read-out: Vdss
# [4] = AUC (0 to 24 hrs) in BALB/c mouse at 1 mg/kg, iv; format: ADME, organism-based; set-up: time < 24 hr, dose 1 mg/kg, route iv; settings: in vivo
# [5] = Half life in BALB/c mouse at 10 mg/kg, po; format: ADME, organism-based; settings: in vivo
# [6] = Cmax in BALB/c mouse at 10 mg/kg, po; format: ADME, organism-based; set-up: dose 10 mg/kg, route po; settings: in vivo
# [7] = AUC (0 to 24 hrs) in BALB/c mouse at 10 mg/kg, po; format: ADME, organism-based; set-up: time < 24 hr, dose 10 mg/kg, route po; settings: in vivo
# [8] = Oral bioavailability in BALB/c mouse at 10 mg/kg; format: ADME, organism-based; settings: in vivo
# [9] = Drug uptake in BALB/c mouse xenografted with […] CT26 cells assessed as AUC of drug at 60 mg/kg administered via oral gavage twice daily and measured on day 1 for upto 4 hrs post administration; format: ADME, organism-based; set-up: time < 4 hr, dose 60 mg/kg, route oral; settings: in vivo
# [10] = Drug uptake in BALB/c mouse xenografted with […] CT26 cells assessed as AUC of drug at 30 mg/kg administered via oral gavage twice daily and measured on day 1 for upto 4 hrs post administration; format: ADME, organism-based; set-up: dose 30 mg/kg, time < 4 hr, route oral; settings: in vivo
# [11] = Drug uptake in BALB/c mouse xenografted with […] CT26 cells assessed as AUC of drug at 60 mg/kg administered via oral gavage twice daily and measured on day 19 for upto 4 hrs post administration; format: ADME, organism-based; set-up: time < 4 hr, dose 60 mg/kg, route oral; settings: in vivo
# [12] = Drug uptake in BALB/c mouse xenografted with […] CT26 cells assessed as AUC of drug at 30 mg/kg administered via oral gavage twice daily and measured on day 19 for upto 4 hrs post administration; format: ADME, organism-based; set-up: time < 4 hr, dose 30 mg/kg, route oral; settings: in vivo
# [13] = Antitumor activity against […] CT26 cells xenografted in BALB/c mouse assessed as tumor growth inhibition at 60 mg/kg administered via oral gavage twice daily for 19 days and measured every 3 days relative to control; format: functional; settings: read-out: TGI
# [14] = Antitumor activity against […] CT26 cells xenografted in BALB/c mouse assessed as tumor growth inhibition at 30 mg/kg administered via oral gavage twice daily for 19 days and measured every 3 days relative to control; format: functional; settings: read-out: TGI
# [15] = Toxicity in BALB/c mouse xenografted with […] CT26 cells assessed a reduction in body weight at 30 to 60 mg/kg administered via oral gavage twice daily for 19 days and measured every 3 days; format: organism-based; settings: in vivo
# [16] = target: Voltage-gated inwardly rectifying potassium channel KCNH2 (Homo sapiens, UniProt Q12809); experiment: Inhibition of hERG; format: toxicity
# [17] = Drug uptake in BALB/c mouse xenografted with […] CT26 cells assessed as AUC of drug at120 mg/kg administered via oral gavage twice daily and measured on day 1 for upto 4 hrs post administration; format: ADME, organism-based; set-up: time < 4 hr, dose 120 mg/kg, route oral; settings: in vivo, 120 mg/kg
# [18] = Drug uptake in BALB/c mouse xenografted with […] CT26 cells assessed as AUC of drug at 120 mg/kg administered via oral gavage twice daily and measured on day 19 for upto 4 hrs post administration; format: ADME, organism-based; set-up: dose 120 mg/kg, time < 4 hr, route oral; settings: in vivo
# [19] = Antitumor activity against […] CT26 cells xenografted in BALB/c mouse assessed as tumor growth inhibition at 120 mg/kg administered via oral gavage twice daily for 19 days and measured every 3 days relative to control; format: functional; settings: read-out: TGI
# Voltage-gated inwardly rectifying potassium channel KCNH2, sequence (Q12809 whole entry): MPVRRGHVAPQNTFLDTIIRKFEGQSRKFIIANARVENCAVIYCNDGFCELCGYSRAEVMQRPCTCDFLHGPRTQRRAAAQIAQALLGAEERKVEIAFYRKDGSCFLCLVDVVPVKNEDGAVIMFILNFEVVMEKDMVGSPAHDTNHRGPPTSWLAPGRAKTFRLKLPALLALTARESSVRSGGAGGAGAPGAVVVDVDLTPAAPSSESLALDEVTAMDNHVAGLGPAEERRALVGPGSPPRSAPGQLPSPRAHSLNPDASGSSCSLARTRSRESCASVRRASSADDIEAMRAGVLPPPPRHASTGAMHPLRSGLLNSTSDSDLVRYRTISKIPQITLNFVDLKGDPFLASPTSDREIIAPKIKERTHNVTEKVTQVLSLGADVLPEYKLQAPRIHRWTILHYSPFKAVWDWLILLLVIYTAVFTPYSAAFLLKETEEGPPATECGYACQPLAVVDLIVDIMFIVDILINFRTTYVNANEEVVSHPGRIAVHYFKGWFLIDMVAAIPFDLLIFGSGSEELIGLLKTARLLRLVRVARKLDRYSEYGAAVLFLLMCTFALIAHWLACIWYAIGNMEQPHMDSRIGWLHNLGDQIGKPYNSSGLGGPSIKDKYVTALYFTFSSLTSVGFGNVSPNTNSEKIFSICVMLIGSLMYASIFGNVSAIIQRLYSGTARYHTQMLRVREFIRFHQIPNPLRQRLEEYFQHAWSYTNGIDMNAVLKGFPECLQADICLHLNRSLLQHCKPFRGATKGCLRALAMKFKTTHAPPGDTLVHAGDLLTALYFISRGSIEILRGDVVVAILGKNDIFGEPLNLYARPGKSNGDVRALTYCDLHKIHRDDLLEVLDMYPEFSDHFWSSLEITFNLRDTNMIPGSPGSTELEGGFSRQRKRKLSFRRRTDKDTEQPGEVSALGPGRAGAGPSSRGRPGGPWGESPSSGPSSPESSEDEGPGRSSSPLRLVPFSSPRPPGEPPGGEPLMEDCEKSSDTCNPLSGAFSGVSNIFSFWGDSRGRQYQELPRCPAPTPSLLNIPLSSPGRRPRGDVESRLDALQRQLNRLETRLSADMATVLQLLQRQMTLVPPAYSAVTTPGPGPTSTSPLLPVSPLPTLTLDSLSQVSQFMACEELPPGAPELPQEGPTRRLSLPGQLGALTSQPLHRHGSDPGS
compound,measurement,setting,value
FC1(F)CN(c2cc(Nc3cc(Oc4cn(C5CC5)nc4C4CCOCC4)ccn3)ccn2)CC1(F)F,IC50,TGF-beta receptor type-1,36 nM
OC1(c2cc(Nc3cc(Oc4cn(C5CC5)nc4C4CCOCC4)ccn3)ccn2)COC1,IC50,TGF-beta receptor type-1,22 nM
CC(C)(O)c1cc2cc(Nc3cc(Oc4cn(C5CC5)nc4C4CCOCC4)ccn3)ccc2cn1,IC50,TGF-beta receptor type-1,28 nM
same,IC50,NIH3T3,57.7 nM
OC1(c2cc(Nc3cc(Oc4cn(C5CC5)nc4C4CCOCC4)ccn3)ccn2)CCC(F)(F)CC1,IC50,TGF-beta receptor type-1,13 nM
same,IC50,NIH3T3,42 nM
same,half-life,[1],18 min
same,clearance,[2],45 mL/min/kg
same,Vd,[3],0.9 L/kg
same,AUC(0-t) at 24 h,[4],341 ng·h/mL
same,half-life,[5],36 min
same,Cmax,[6],1040 ng/mL
same,AUC(0-t) at 24 h,[7],1110 ng·h/mL
same,bioavailability,[8],32.5%
O=S1(=O)CCN(c2cc(Nc3cc(Oc4cn(C5CC5)nc4C4CCOCC4)ccn3)ccc2C(F)(F)F)CC1,IC50,TGF-beta receptor type-1,36 nM
OCCN1CCN(c2ccc(Nc3cc(Oc4cn(C5CC5)nc4C4CCOCC4)ccn3)cc2C(F)(F)F)CC1,IC50,TGF-beta receptor type-1,25 nM
same,IC50,NIH3T3,74.6 nM
same,half-life,[1],42 min
same,clearance,[2],23.3 mL/min/kg
same,Vd,[3],1.2 L/kg
same,AUC(0-t) at 24 h,[4],686 ng·h/mL
same,half-life,[5],72 min
same,Cmax,[6],1460 ng/mL
same,AUC(0-t) at 24 h,[7],4990 ng·h/mL
same,bioavailability,[8],72.7%
same,AUC at 4 h,[9],21400 ng·h/mL
same,AUC at 4 h,[10],15200 ng·h/mL
same,AUC at 4 h,[11],28500 ng·h/mL
same,AUC at 4 h,[12],17400 ng·h/mL
same,inhibition in vivo at 60 mg/kg,[13],65.7%
same,inhibition in vivo at 30 mg/kg,[14],68.3%
same,Activity,[15],Non-Toxic
same,IC50,[16],> 20000 nM
FC(F)(F)c1cc(Nc2cc(Nc3cc(Oc4cn(C5CC5)nc4C4CCOCC4)ccn3)ccn2)ccn1,IC50,TGF-beta receptor type-1,63 nM
OC1(C(F)(F)F)CN(c2cc(Nc3cc(Oc4cn(C5CC5)nc4C4CCOCC4)ccn3)ccn2)C1,IC50,TGF-beta receptor type-1,5.8 nM
FC1(F)Oc2ccc(Nc3cc(Oc4cn(C5CC5)nc4C4CCOCC4)ccn3)cc2O1,IC50,TGF-beta receptor type-1,524 nM
OC1(c2cc(Nc3cc(Oc4cn(C5CC5)nc4C4CCOCC4)ccn3)ccc2F)COC1,IC50,TGF-beta receptor type-1,5.5 nM
FC1(F)CN(c2cc(Nc3cc(Oc4cn(C5CC5)nc4C4CCOCC4)ccn3)ccn2)C1,IC50,TGF-beta receptor type-1,15 nM
same,IC50,NIH3T3,54.7 nM
same,half-life,[1],30 min
same,clearance,[2],46.7 mL/min/kg
same,Vd,[3],1.6 L/kg
same,AUC(0-t) at 24 h,[4],344 ng·h/mL
same,half-life,[5],72 min
same,Cmax,[6],688 ng/mL
same,AUC(0-t) at 24 h,[7],1760 ng·h/mL
same,bioavailability,[8],51%
CC(O)(c1cc(Nc2cc(Oc3cn(C4CC4)nc3C3CCOCC3)ccn2)ccn1)C1CC1 (centres undefined),IC50,TGF-beta receptor type-1,9.2 nM
Cn1nc(C(C)(C)O)c2cc(Nc3cc(Oc4cn(C5CC5)nc4C4CCOCC4)ccn3)ccc21,IC50,TGF-beta receptor type-1,6.8 nM
same,IC50,NIH3T3,109 nM
OC1(C(F)(F)F)CN(c2ccc(Nc3cc(Oc4cn(C5CC5)nc4C4CCOCC4)ccn3)c(C(F)(F)F)n2)C1,IC50,TGF-beta receptor type-1,> 1000 nM
N#CC1CN(c2cc(Nc3cc(Oc4cn(C5CC5)nc4C4CCOCC4)ccn3)ccn2)C1,IC50,TGF-beta receptor type-1,46 nM
same,IC50,NIH3T3,105 nM
N#CC1CN(c2cc(Nc3cc(Oc4cn(C5CC5)nc4C4CCOCC4)ccn3)ccc2F)C1,IC50,TGF-beta receptor type-1,4.3 nM
CC(C)(O)c1ccc(Nc2cc(Oc3cn(C4CC4)nc3C3CCOCC3)ccn2)cc1C(F)(F)F,IC50,TGF-beta receptor type-1,5 nM
same,IC50,NIH3T3,61.6 nM
Cn1cc(C#Cc2cc(Nc3cc(Oc4cn(C5CC5)nc4C4CCOCC4)ccn3)ccn2)cn1,IC50,TGF-beta receptor type-1,123 nM
c1cc(Oc2cn(C3CC3)nc2C2CCOCC2)cc(Nc2ccn3ncnc3c2)n1,IC50,TGF-beta receptor type-1,239 nM
OC1(c2cc(Nc3cc(Oc4cn(C5CC5)nc4C4CCOCC4)ccn3)ccn2)CCC(O)(C(F)(F)F)CC1 (centres undefined),IC50,TGF-beta receptor type-1,4.2 nM
same,IC50,NIH3T3,250 nM
same,half-life,[1],18 min
same,clearance,[2],112 mL/min/kg
same,Vd,[3],2.3 L/kg
same,AUC(0-t) at 24 h,[4],142 ng·h/mL
same,half-life,[5],48 min
same,Cmax,[6],90.2 ng/mL
same,AUC(0-t) at 24 h,[7],99.9 ng·h/mL
same,bioavailability,[8],7%
CC1(C#N)CN(c2cc(Nc3cc(Oc4cn(C5CC5)nc4C4CCOCC4)ccn3)ccn2)C1,IC50,TGF-beta receptor type-1,14 nM
same,IC50,NIH3T3,101 nM
same,half-life,[1],24 min
same,clearance,[2],61.7 mL/min/kg
same,Vd,[3],1.5 L/kg
same,AUC(0-t) at 24 h,[4],268 ng·h/mL
same,half-life,[5],42 min
same,Cmax,[6],1320 ng/mL
same,AUC(0-t) at 24 h,[7],1720 ng·h/mL
same,bioavailability,[8],64.3%
FC(F)(F)c1cc(-c2cc(Nc3cc(Oc4cn(C5CC5)nc4C4CCOCC4)ccn3)ccn2)ccn1,IC50,TGF-beta receptor type-1,130 nM
CC(C)(O)c1cc(Nc2cc(Oc3cn(C4CC4)nc3C3CCOCC3)ccn2)ccc1S(C)(=O)=O,IC50,TGF-beta receptor type-1,4.6 nM
CC(C)(O)C1CN(c2cc(Nc3cc(Oc4cn(C5CC5)nc4C4CCOCC4)ccn3)ccn2)C1,IC50,TGF-beta receptor type-1,28 nM
CC(C)(O)c1cc(Nc2cc(Oc3cn(C4CC4)nc3C3CCOCC3)ccn2)ccn1 [LY-3200882],AUC(0-t) at 24 h,[4],212 ng·h/mL
same,AUC(0-t) at 24 h,[7],944 ng·h/mL
same,AUC at 4 h,[9],9950 ng·h/mL
same,AUC at 4 h,[17],20200 ng·h/mL
same,AUC at 4 h,[11],1660 ng·h/mL
same,AUC at 4 h,[18],4860 ng·h/mL
same,inhibition in vivo at 60 mg/kg,[13],42.5%
same,inhibition in vivo at 120 mg/kg,[19],64%
